Key:
Experiment in all cases: KinomeScan profiling
Format in all cases: binding
[1] = target: T1, BMPR2 (Homo sapiens, UniProt Q13873); conditions: BMPR2, 1 μM; read-out: % control
T1 construct: purchased KinomeScan®
T1 sequence (Q13873 27-1038): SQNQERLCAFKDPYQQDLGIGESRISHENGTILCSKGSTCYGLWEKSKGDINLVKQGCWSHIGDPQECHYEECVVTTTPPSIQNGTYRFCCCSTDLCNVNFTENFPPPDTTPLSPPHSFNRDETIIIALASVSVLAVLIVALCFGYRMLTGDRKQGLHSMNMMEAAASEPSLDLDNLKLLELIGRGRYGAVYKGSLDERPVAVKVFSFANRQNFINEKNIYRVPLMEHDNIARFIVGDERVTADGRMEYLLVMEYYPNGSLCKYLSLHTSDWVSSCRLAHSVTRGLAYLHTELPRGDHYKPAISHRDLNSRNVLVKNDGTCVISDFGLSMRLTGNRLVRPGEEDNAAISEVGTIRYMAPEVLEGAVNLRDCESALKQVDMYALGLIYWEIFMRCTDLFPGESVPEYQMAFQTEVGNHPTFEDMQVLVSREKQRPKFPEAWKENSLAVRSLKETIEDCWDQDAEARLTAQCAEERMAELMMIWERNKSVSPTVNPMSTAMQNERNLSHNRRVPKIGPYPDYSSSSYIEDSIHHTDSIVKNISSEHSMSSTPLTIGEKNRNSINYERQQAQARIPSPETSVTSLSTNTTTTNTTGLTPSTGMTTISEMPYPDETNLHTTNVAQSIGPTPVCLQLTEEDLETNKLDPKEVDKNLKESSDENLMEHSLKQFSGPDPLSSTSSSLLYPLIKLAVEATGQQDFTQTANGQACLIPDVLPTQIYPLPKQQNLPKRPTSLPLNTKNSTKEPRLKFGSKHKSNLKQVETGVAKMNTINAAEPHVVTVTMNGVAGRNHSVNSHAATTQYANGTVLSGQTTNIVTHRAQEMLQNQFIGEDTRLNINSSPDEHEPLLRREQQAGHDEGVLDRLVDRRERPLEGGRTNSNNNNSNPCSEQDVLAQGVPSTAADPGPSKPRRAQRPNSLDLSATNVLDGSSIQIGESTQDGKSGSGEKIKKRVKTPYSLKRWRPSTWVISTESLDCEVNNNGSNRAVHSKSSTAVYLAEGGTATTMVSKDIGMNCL
Procedure, shortened: (§1)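 Selectivity was assessed by binding competition at 1 μM against 468 kinases. Values below 35% of control define an interaction.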

[2] = target: FGFR4 (Homo sapiens, UniProt P22455); conditions: FGFR4, 1 μM; read-out: % control
Procedure, shortened: as §1

[3] = target: PFCDPK1(P. falciparum) (Plasmodium falciparum, UniProt P62344); conditions: read-out: % control
Procedure, shortened: as §1

[4] = target: T2, TNNI3K (Homo sapiens, UniProt Q59H18); conditions: read-out: % control
T2 sequence (Q59H18 1-835): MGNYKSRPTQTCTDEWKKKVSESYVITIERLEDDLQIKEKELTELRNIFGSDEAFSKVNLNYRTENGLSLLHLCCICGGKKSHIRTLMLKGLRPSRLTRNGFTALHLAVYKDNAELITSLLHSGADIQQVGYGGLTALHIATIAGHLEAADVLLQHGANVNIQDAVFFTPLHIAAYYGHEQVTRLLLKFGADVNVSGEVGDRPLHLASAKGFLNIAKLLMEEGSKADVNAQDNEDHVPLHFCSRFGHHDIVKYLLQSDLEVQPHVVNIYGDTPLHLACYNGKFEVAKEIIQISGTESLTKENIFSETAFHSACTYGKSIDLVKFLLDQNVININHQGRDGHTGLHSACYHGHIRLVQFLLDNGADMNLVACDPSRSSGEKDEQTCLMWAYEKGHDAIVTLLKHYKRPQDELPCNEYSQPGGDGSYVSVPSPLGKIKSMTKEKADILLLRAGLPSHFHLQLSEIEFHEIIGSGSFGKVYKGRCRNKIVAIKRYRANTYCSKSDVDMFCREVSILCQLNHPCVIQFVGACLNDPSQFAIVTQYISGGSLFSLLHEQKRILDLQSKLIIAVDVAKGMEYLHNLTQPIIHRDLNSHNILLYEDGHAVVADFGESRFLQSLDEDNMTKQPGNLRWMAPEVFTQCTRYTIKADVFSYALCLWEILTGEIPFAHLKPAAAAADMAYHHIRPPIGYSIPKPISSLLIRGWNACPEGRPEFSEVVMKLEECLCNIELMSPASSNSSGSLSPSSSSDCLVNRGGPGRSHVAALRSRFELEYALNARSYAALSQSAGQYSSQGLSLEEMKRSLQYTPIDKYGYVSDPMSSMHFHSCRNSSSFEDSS
Procedure, shortened: as §1

Chain of PFCDPK1(P. falciparum) (P62344 whole entry): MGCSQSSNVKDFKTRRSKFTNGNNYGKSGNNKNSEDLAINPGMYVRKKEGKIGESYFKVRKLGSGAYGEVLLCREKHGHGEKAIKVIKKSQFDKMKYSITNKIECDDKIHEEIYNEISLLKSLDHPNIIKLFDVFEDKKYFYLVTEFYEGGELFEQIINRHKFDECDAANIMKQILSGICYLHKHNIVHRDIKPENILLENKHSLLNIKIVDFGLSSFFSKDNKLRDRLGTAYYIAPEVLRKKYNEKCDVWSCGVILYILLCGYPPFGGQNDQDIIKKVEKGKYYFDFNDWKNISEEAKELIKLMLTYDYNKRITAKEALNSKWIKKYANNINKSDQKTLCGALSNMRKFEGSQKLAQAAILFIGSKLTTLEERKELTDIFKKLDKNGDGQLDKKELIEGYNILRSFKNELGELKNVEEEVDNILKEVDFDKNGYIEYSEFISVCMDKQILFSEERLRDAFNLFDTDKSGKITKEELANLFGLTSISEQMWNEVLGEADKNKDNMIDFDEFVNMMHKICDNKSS
Chain of FGFR4 (P22455 22-802): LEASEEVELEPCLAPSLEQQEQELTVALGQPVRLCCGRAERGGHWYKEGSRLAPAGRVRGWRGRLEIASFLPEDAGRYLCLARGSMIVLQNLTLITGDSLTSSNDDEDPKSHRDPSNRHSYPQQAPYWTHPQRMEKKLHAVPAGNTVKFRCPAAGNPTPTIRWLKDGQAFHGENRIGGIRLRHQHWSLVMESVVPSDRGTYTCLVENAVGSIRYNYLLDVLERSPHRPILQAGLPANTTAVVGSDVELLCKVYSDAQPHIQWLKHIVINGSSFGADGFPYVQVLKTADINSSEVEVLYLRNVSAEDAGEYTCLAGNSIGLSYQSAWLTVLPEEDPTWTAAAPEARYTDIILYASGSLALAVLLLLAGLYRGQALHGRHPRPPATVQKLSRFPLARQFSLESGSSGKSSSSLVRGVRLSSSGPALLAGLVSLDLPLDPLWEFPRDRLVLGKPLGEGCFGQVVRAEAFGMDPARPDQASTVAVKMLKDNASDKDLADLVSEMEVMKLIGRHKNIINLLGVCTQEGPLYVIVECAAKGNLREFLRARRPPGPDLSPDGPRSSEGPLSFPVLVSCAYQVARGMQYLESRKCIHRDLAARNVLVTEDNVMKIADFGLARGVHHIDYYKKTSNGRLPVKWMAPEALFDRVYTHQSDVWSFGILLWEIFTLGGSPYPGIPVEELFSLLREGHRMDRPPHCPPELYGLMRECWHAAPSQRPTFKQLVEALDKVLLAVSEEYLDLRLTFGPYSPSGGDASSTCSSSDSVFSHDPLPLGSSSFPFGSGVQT

Row | SMILES | remaining binding at 1 µM [1] | remaining binding at 1 µM [2] | remaining binding at 1 µM [3] | remaining binding at 1 µM [4]
1 | CNc1c(-c2cnn([C@H]3CCN(C(C)=O)C[C@@H]3F)c2)cnc2[nH]cc(Cl)c12 [Compound 77, 1-((3S,4S)-4-(4-(3-chloro-4-(methylamino)-1H-pyrrolo[2,3-b]pyridin-5-yl)-1H-pyrazol-1-yl)-3-fluoropiperidin-1-yl)ethan-1-one] | 40% | 61% | 86% | 65%
2 | O=C(c1ccc(-c2cnc3[nH]cc(Cl)c3c2NC2CCCC2)cc1)N1CCC(N2CCOCC2)CC1 [Compound 101, (4-(3-chloro-4-(cyclopentylamino)-1H-pyrrolo[2,3-b]pyridin-5-yl)phenyl)(4-morpholinopiperidin-1-yl)methanone] | 98% | 85% | 95% | 100%
3 | CNc1c(-c2ccc(C(=O)N3CCC(N4CCOCC4)CC3)cc2)cnc2[nH]cc(Cl)c12 [Compound 96, (4-(3-chloro-4-(methylamino)-1H-pyrrolo[2,3-b]pyridin-5-yl)phenyl)(4-morpholinopiperidin-1-yl)methanone] | 53% | 59% | 94% | 74%

Reference: patent publication US12275731B2, “Azaindole inhibitors of wild-type and mutant forms of LRRK2” (DANA-FARBER CANCER INSTITUTE, INC., priority 2018, dated 2025)
